In patent US9994594B2, “Inhibitors of arginase and their therapeutic applications” (MARS, INCORPORATED, priority 2010, dated 2018):
Counter-ions that a name gives are not always drawn. Like-named read-outs stand apart in the source and are kept apart here.

Key:
[1] = biological target: T1, arginase II (ARG II) (Homo sapiens, UniProt P78540); experiment: Inhibition of arginase II, spectrophotometric urea assay at 530 nm; assay type: biochemical
T1 sequence (P78540 23-354): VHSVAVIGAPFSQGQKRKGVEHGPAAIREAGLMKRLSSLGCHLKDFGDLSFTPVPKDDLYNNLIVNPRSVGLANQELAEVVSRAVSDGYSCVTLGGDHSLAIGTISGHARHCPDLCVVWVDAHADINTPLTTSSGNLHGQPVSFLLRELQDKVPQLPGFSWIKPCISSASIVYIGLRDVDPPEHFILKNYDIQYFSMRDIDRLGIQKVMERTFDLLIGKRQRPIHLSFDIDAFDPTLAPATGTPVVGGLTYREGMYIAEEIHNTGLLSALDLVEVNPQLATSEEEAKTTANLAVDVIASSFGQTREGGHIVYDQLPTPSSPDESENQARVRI
Method in brief: (§1)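 IC50 was derived by regression of OD530 normalized to uninhibited-enzyme controls against log concentration. Urea from 60-min, 37 °C turnover of L-arginine with manganese sulfate was detected after acid o-phthaldialdehyde/primaquine quench and 10 min colour development. Arginase I and II came from 100 ng/ml stocks in pH 7.4 phosphate with ovalbumin.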

[2] = biological target: T2, human arginase I (ARG I) (Homo sapiens, UniProt P05089); experiment: Inhibition of arginase I, spectrophotometric urea assay at 530 nm; assay type: biochemical
T2 sequence (P05089 1-322): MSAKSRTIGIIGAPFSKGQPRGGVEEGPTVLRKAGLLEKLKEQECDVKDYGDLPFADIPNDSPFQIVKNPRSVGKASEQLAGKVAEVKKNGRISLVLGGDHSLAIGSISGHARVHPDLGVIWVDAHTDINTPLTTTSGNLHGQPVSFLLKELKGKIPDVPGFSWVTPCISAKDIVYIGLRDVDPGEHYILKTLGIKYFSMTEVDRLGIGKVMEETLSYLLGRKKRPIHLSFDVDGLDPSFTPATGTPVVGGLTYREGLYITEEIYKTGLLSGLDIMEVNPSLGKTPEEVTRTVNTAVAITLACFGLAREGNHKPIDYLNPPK
Method in brief: as §1

[3] = Formula II compounds, Table 2-A, read-out: Potency (ARG)
[4] = Formula II compounds, Table 2-A, read-out: Potency (ARG I)
[5] = Formula I compounds, Table 2, read-out: Potency (ARG II)
[6] = Formula I compounds, Table 2, read-out: Potency (ARG I)

SMILES: N#Cc1cccc(CN2CCC(C(N)(CCCCB(O)O)C(=O)O)CC2)c1 (stereo not drawn) [Example 106-A, 2-amino-6-borono-2-(1-(3-cyanobenzyl)piperidin-4-yl)hexanoic acid dihydrochloride]
- IC50 [1, 3]: 251 to 1000 nM
- IC50 [2, 4]: 251 to 1000 nM

SMILES: CC(C)CCN1CCC(C(N)(CCCCB(O)O)C(=O)O)CC1 (stereo not drawn) [Example 92-A, 2-amino-6-borono-2-(1-isopentylpiperidin-4-yl)hexanoic acid dihydrochloride]
- IC50 [1, 3]: 0.1 to 250 nM
- IC50 [2, 4]: 0.1 to 250 nM

SMILES: NC(CCCCB(O)O)(C(=O)O)[C@@H]1CCN(S(=O)(=O)c2ccccc2[N+](=O)[O-])C1 (stereo partly drawn) [Example 40-A, 2-amino-6-borono-2-((R)-1-(2-nitrophenylsulfonyl)pyrrolidin-3-yl)hexanoic acid]
- IC50 [1, 3]: 251 to 1000 nM
- IC50 [2, 4]: 251 to 1000 nM

SMILES: CCCN1CCC(C(N)(CCCCB(O)O)C(=O)O)CC1 (stereo not drawn) [Example 101-A, 2-amino-6-borono-2-(1-propylpiperidin-4-yl)hexanoic acid dihydrochloride]
- IC50 [1, 3]: 0.1 to 250 nM
- IC50 [2, 4]: 251 to 1000 nM

SMILES: N[C@](CCCCB(O)O)(CCN1CCC(O)CC1)C(=O)O [compound 4, (R)-2-amino-6-borono-2-(2-(4-hydroxypiperidin-1-yl)ethyl)hexanoic acid dihydrochloride]
- IC50 [1, 5]: 251 to 1000 nM
- IC50 [2, 6]: 251 to 1000 nM

SMILES: NC(CCCCB(O)O)(C(=O)O)[C@H]1C[C@@H](NCc2cccc3ccccc23)C1 (stereo partly drawn) [Example 80-A, cis-2-amino-6-borono-2-(3-(naphthalen-1-ylmethylamino)cyclobutyl)hexanoic acid dihydrochloride]
- IC50 [1, 3]: 0.1 to 250 nM
- IC50 [2, 4]: 0.1 to 250 nM

SMILES: COc1ccc(CN(C)CCC(N)(CCCCB(O)O)C(=O)O)cc1 (stereo not drawn) [compound 27, 2-amino-6-borono-2-(2-((4-methoxybenzyl)(methyl)amino)ethyl)hexanoic acid dihydrochloride]
- IC50 [1, 5]: 1000 to 2000 nM
- IC50 [2, 6]: 1000 to 2000 nM

SMILES: NC(CCCCB(O)O)(C(=O)O)[C@H]1C[C@@H](NCc2ccc(OC(F)(F)F)cc2)C1 (stereo partly drawn) [Example 76-A, cis-2-amino-6-borono-2-(3-(4-(trifluoromethoxy)benzylamino)cyclobutyl)hexanoic acid dihydrochloride]
- IC50 [1, 3]: 0.1 to 250 nM
- IC50 [2, 4]: 0.1 to 250 nM

SMILES: NC(CCCCB(O)O)(C(=O)O)C1CCN(Cc2cccc(OC(F)(F)F)c2)CC1 (stereo not drawn) [Example 103-A, 2-amino-6-borono-2-(1-(3-(trifluoromethoxy)benzyl)piperidin-4-yl)hexanoic acid dihydrochloride]
- IC50 [1, 3]: 0.1 to 250 nM
- IC50 [2, 4]: 0.1 to 250 nM

SMILES: CNC(CCCCB(O)O)(CCN1CCCCC1)C(=O)O (stereo not drawn) [compound 149, 6-borono-2-(methylamino)-2-(2-(piperidin-1-yl)ethyl)hexanoic acid]
- IC50 [1, 5]: 0.1 to 250 nM
- IC50 [2, 6]: 0.1 to 250 nM

SMILES: NC(CCCCB(O)O)(CCOc1cccc(C(F)(F)F)c1)C(=O)O (stereo not drawn) [compound 95, 2-Amino-6-borono-2-[2-(3-trifluoromethylphenoxy)-ethyl]-hexanoic acid hydrochloride]
- IC50 [1, 5]: 2000 to 5000 nM
- IC50 [2, 6]: 2000 to 5000 nM

SMILES: NC(CCCCB(O)O)(CCN1CCC(F)CC1)C(=O)O (stereo not drawn) [compound 47, 2-amino-6-borono-2-(2-(4-fluoropiperidin-1-yl)ethyl)hexanoic acid dihydrochloride]
- IC50 [1, 5]: 2000 to 5000 nM
- IC50 [2, 6]: 1000 to 2000 nM

SMILES: COC[C@@H]1CCCN1CCC(N)(CCCCB(O)O)C(=O)O (stereo partly drawn) [compound 33, 2-amino-6-borono-2-(2-((S)-2-(methoxymethyl)pyrrolidin-1-yl)ethyl)hexanoic acid dihydrochloride]
- IC50 [1, 5]: 251 to 1000 nM
- IC50 [2, 6]: 251 to 1000 nM

SMILES: NC(CCCCB(O)O)(CCN1CCc2[nH][nH]c(=O)c2C1)C(=O)O (stereo not drawn) [compound 30, 2-amino-6-borono-2-(2-(3-oxo-2,3,6,7-tetrahydro-1H-pyrazolo[4,3-c]pyridin-5(4H)-yl)ethyl)hexanoic acid dihydrochloride]
- IC50 [1, 5]: 1000 to 2000 nM
- IC50 [2, 6]: 251 to 1000 nM

SMILES: CC(=O)C1(c2ccccc2)CCN(CCC(N)(CCCCB(O)O)C(=O)O)CC1 (stereo not drawn) [compound 45, 2-(2-(4-acetyl-4-phenylpiperidin-1-yl)ethyl)-2-amino-6-boronohexanoic acid dihydrochloride]
- IC50 [1]: 2000 to 5000 nM
- IC50 [2]: 1000 to 2000 nM

SMILES: COc1ccc(C2=CCN(CCC(N)(CCCCB(O)O)C(=O)O)CC2)cc1 (stereo not drawn) [compound 31, 2-amino-6-borono-2-(2-(4-(4-methoxyphenyl)-5,6-dihydropyridin-1(2H)-yl)ethyl)hexanoic acid dihydrochloride]
- IC50 [1, 5]: 251 to 1000 nM
- IC50 [2, 6]: 251 to 1000 nM

SMILES: COC[C@@H]1CCCN1CC[C@](N)(CCCCB(O)O)C(=O)O [compound 2, (R)-2-amino-6-borono-2-(2-((S)-2-(methoxymethyl)pyrrolidin-1-yl)ethyl)hexanoic acid dihydrochloride]
- IC50 [1, 5]: 251 to 1000 nM
- IC50 [2, 6]: 251 to 1000 nM

SMILES: COc1cc(F)c(CN2CCC(C(N)(CCCCB(O)O)C(=O)O)CC2)cc1OC (stereo not drawn) [Example 96-A, 2-amino-6-borono-2-(1-(2-fluoro-4,5-dimethoxybenzyl)piperidin-4-yl)hexanoic acid dihydrochloride]
- IC50 [1, 3]: 251 to 1000 nM
- IC50 [2, 4]: 0.1 to 250 nM

SMILES: CC1(C)CCC(N2CCC(C(N)(CCCCB(O)O)C(=O)O)CC2)CC1 (stereo not drawn) [25-A, 2-amino-6-borono-2-[1-(4,4-dimethylcyclohexyl)piperidin-4-yl]hexanoic acid dihydrochloride]
- IC50 [1, 3]: 251 to 1000 nM
- IC50 [2, 4]: 0.1 to 250 nM

SMILES: CCN(CCC(N)(CCCCB(O)O)C(=O)O)Cc1ccccc1 (racemic) [compound 19, (R/S)-2-Amino-2-[2-(benzyl-ethyl-amino)-ethyl]-6-borono-hexanoic acid dihydrochloride]
- IC50 [1, 5]: 1000 to 2000 nM
- IC50 [2, 6]: 2000 to 5000 nM

SMILES: NC(CCCCB(O)O)(C(=O)O)C1CCN(Cc2cccc(C(=O)O)c2)CC1 (stereo not drawn) [Example 105-A, 3-((4-(1-amino-5-borono-1-carboxypentyl)piperidin-1-yl)methyl)benzoic acid dihydrochloride]
- IC50 [1, 3]: 251 to 1000 nM
- IC50 [2, 4]: 251 to 1000 nM

SMILES: NC(CCCCB(O)O)(C(=O)O)[C@H]1CCCN(Cc2ccc(Cl)c(Cl)c2)C1 (stereo partly drawn) [Example 69-A, 2-amino-6-borono-2-((S)-1-(3,4-dichlorobenzyl)piperidin-3-yl)hexanoic acid dihydrochloride]
- IC50 [1, 3]: 1000 to 2000 nM
- IC50 [2, 4]: 251 to 1000 nM

SMILES: NC(CCCCB(O)O)(C(=O)O)C1CCN(Cc2ccc(Cl)c(Cl)c2)CC1 (stereo not drawn) [Example 95-A, 2-amino-6-borono-2-(1-(3,4-dichlorobenzyl)piperidin-4-yl)hexanoic acid dihydrochloride]
- IC50 [1, 3]: 251 to 1000 nM
- IC50 [2, 4]: 0.1 to 250 nM

SMILES: NC(CCCCB(O)O)(C(=O)O)C1CCN(c2nc3ccc(Cl)cc3s2)CC1 (stereo not drawn) [11-A, 2-amino-6-borono-2-[(6-chlorobenzothiazol-2-yl)-piperidin-4-yl)-hexanoic acid dihydrochloride]
- IC50 [1, 3]: 251 to 1000 nM
- IC50 [2, 4]: 251 to 1000 nM

SMILES: NC(CCCCB(O)O)(CCCN1CCCCC1)C(=O)O (stereo not drawn) [compound 147, 2-amino-6-borono-2-(3-(piperidin-1-yl)propyl)hexanoic acid dihydrochloride]
- IC50 [1, 5]: 251 to 1000 nM
- IC50 [2, 6]: 0.1 to 250 nM

SMILES: NC(CCCCB(O)O)(C(=O)O)C1CCN(c2cc(C(F)(F)F)c3ccccc3n2)CC1 (stereo not drawn) [6-A, 2-amino-6-borono-2-(1-(4-(trifluoromethyl)quinolin-2-yl)piperidin-4-yl)hexanoic acid]
- IC50 [1, 3]: 1000 to 2000 nM
- IC50 [2, 4]: 251 to 1000 nM

SMILES: N[C@](CCCCB(O)O)(CCN1CCC(CCO)CC1)C(=O)O [compound 9, (R)-2-amino-6-borono-2-(2-(4-(2-hydroxyethyl)piperidin-1-yl)ethyl)hexanoic acid dihydrochloride]
- IC50 [1, 5]: 251 to 1000 nM
- IC50 [2, 6]: 0.1 to 250 nM

SMILES: NC(CCCCB(O)O)(C(=O)O)C1CCN(CCc2ccccc2)CC1 (stereo not drawn) [Example 41-A, 2-amino-6-borono-2-(1-phenethylpiperidin-4-yl)hexanoic acid]
- IC50 [1, 3]: 0.1 to 250 nM
- IC50 [2, 4]: 251 to 1000 nM

SMILES: NC(CCCCB(O)O)(C(=O)O)C1CCN(C2CCCC2)CC1 (stereo not drawn) [24-A, 2-amino-6-borono-2-(1-cyclopentylpiperidin-4-yl)hexanoic acid dihydrochloride]
- IC50 [1, 3]: 251 to 1000 nM
- IC50 [2, 4]: 251 to 1000 nM

SMILES: CC1(C)CCN(CCC(N)(CCCCB(O)O)C(=O)O)CC1 (stereo not drawn) [compound 128, 2-amino-6-borono-2-(2-(4,4-dimethylpiperidin-1-yl)ethyl)hexanoic acid dihydrochloride]
- IC50 [1, 5]: 1000 to 2000 nM
- IC50 [2, 6]: 251 to 1000 nM

SMILES: NC(CCCCB(O)O)(C(=O)O)C1CCN(Cc2cc3c(cc2Cl)OCO3)CC1 (stereo not drawn) [Example 91-A, 2-amino-6-borono-2-(1-((6-chlorobenzo[d][1,3]dioxol-5-yl)methyl)piperidin-4-yl)hexanoic acid dihydrochloride]
- IC50 [1, 3]: 251 to 1000 nM
- IC50 [2, 4]: 0.1 to 250 nM

SMILES: CNC(CCCCB(O)O)C(=O)O (stereo not drawn) [compound 146, 6-borono-2-(methylamino)hexanoic acid hydrochloride]
- IC50 [1, 5]: 2000 to 5000 nM
- IC50 [2, 6]: 1000 to 2000 nM

SMILES: CCCCNCC(N)(CCCCB(O)O)C(=O)O (stereo not drawn) [compound 86, 2-amino-6-borono-2-((butylamino)methyl)hexanoic acid dihydrochloride]
- IC50 [1, 5]: 2000 to 5000 nM
- IC50 [2, 6]: 2000 to 5000 nM
